Legend:
Experiment in all cases: fitness (endpoint OD595 vs no drug) (fraction); higher = more growth
[1] = test system: S. pneumoniae D39V
Outline: (§1)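 Bacterial fitness was scored as optical density at the stationary-phase transition relative to the robust mean of no-drug control wells. Scores are capped at 1. The growth data were OD595 readings every 30 min for 14 h at 37 °C, background-subtracted against the first reading, from 384-well plates inoculated at OD595 0.01 in TSB, LB Lennox or CY.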

[2] = test system: B. subtilis 168
Outline: as §1

[3] = test system: S. aureus Newman
Outline: as §1
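Note: OD595 on entry to stationary phase over no-drug wells; at most 1.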

O=C(O)c1cn(C2CC2)c2cc(N3CCNCC3)c(F)cc2c1=O [Ciprofloxacin] + CN(C)[C@@H]1C(O)=C(C(N)=O)C(=O)[C@@]2(O)C(O)=C3C(=O)c4c(O)ccc(Cl)c4[C@@](C)(O)[C@H]3C[C@@H]12 [Chlortetracycline]
Conditions	fitness
[1], first compound 0.125 µg/mL, partner 0.012 µg/mL	0.867
[1], first compound 0.125 µg/mL, partner 0.024 µg/mL	0.748
[1], first compound 0.125 µg/mL, partner 0.048 µg/mL	0.35
[1], first compound 0.125 µg/mL, partner 0.375 µg/mL	0.0283
[1], first compound 0.125 µg/mL, partner 0.75 µg/mL	0.038
[1], first compound 0.125 µg/mL, partner 1.5 µg/mL	0.0287
[1], first compound 0.25 µg/mL, partner 0.375 µg/mL	0.0322
[1], first compound 0.25 µg/mL, partner 0.75 µg/mL	0.0502
[1], first compound 0.25 µg/mL, partner 1.5 µg/mL	0.0591
[1], first compound 0.5 µg/mL, partner 0.048 µg/mL	0.323
[1], first compound 0.5 µg/mL, partner 0.75 µg/mL	0.0332
[1], first compound 0.5 µg/mL, partner 1.5 µg/mL	0.0454
[2], first compound 0.0098 µg/mL, partner 0.0475 µg/mL	0.886
[2], first compound 0.0098 µg/mL, partner 0.095 µg/mL	0.82
[2], first compound 0.0098 µg/mL, partner 0.19 µg/mL	0.658
[2], first compound 0.0195 µg/mL, partner 0.0475 µg/mL	0.776
[2], first compound 0.0195 µg/mL, partner 0.095 µg/mL	0.692
[2], first compound 0.0195 µg/mL, partner 0.19 µg/mL	0.582
[2], first compound 0.039 µg/mL, partner 0.19 µg/mL	0.307

[1], first compound 0.25 µg/mL, one replicate
Conditions	fitness
partner 0.012 µg/mL	0.74
partner 0.024 µg/mL	0.447
partner 0.048 µg/mL	0.237

CC1(C)S[C@@H]2[C@H](NC(=O)Cc3ccccc3)C(=O)N2[C@H]1C(=O)O [Penicillin G] + CCN(CC)CCOC(=O)c1ccc(N)cc1 [Procaine]
fitness, [3]
Conditions	first compound 0.0195 µg/mL	first compound 0.039 µg/mL	first compound 0.078 µg/mL
partner 85.5 µg/mL	0.899	0.943	0.947
partner 171 µg/mL	0.876	0.925	0.977
partner 342 µg/mL	0.876	0.914	0.952

CN(C)[C@@H]1C(O)=C(C(N)=O)C(=O)[C@@]2(O)C(O)=C3C(=O)c4c(O)ccc(Cl)c4[C@@](C)(O)[C@H]3C[C@@H]12 [Chlortetracycline] + CC(C1CCC(C(O1)OC2C(CC(C(C2O)OC3C(C(C(CO3)(C)O)NC)O)N)N)N)NC [Gentamicin]
main component drawn
Conditions	fitness
[1], first compound 0.012 µg/mL, partner 2 µg/mL	0.8
[1], first compound 0.012 µg/mL, partner 4 µg/mL	0.752
[1], first compound 0.012 µg/mL, partner 8 µg/mL	0.706
[1], first compound 0.024 µg/mL, partner 2 µg/mL	0.393
[1], first compound 0.024 µg/mL, partner 4 µg/mL	0.392
[1], first compound 0.024 µg/mL, partner 8 µg/mL	0.389
[1], first compound 0.048 µg/mL, partner 2 µg/mL	0.255
[1], first compound 0.048 µg/mL, partner 4 µg/mL	0.184
[1], first compound 0.048 µg/mL, partner 8 µg/mL	0.187
[1], first compound 0.375 µg/mL, partner 2 µg/mL	0.0667
[1], first compound 0.375 µg/mL, partner 4 µg/mL	0.0598
[1], first compound 0.375 µg/mL, partner 8 µg/mL	0.0694
[1], first compound 0.75 µg/mL, partner 2 µg/mL	0.0603
[1], first compound 0.75 µg/mL, partner 4 µg/mL	0.0825
[1], first compound 0.75 µg/mL, partner 8 µg/mL	0.0967
[1], first compound 1.5 µg/mL, partner 2 µg/mL	0.0704
[1], first compound 1.5 µg/mL, partner 4 µg/mL	0.0878
[1], first compound 1.5 µg/mL, partner 8 µg/mL	0.0614
[2], first compound 0.0475 µg/mL, partner 0.0625 µg/mL	0.917
[2], first compound 0.095 µg/mL, partner 0.0625 µg/mL	0.778
[2], first compound 0.19 µg/mL, partner 0.25 µg/mL	0.0795

CN(C)[C@@H]1C(O)=C(C(N)=O)C(=O)[C@@]2(O)C(O)=C3C(=O)c4c(O)ccc(Cl)c4[C@@](C)(O)[C@H]3C[C@@H]12 [Chlortetracycline] + C[C@H]1COc2c(N3CCN(C)CC3)c(F)cc3c(=O)c(C(=O)O)cn1c23 [Levofloxacin]
Conditions	fitness
[1], first compound 0.012 µg/mL, partner 0.1725 µg/mL	0.949
[1], first compound 0.012 µg/mL, partner 0.345 µg/mL	0.803
[1], first compound 0.012 µg/mL, partner 0.69 µg/mL	0.603
[1], first compound 0.024 µg/mL, partner 0.1725 µg/mL	0.909
[1], first compound 0.024 µg/mL, partner 0.345 µg/mL	0.88
[1], first compound 0.024 µg/mL, partner 0.69 µg/mL	0.546
[1], first compound 0.048 µg/mL, partner 0.1725 µg/mL	0.869
[1], first compound 0.048 µg/mL, partner 0.345 µg/mL	0.828
[1], first compound 0.375 µg/mL, partner 0.2 µg/mL	0.0411
[1], first compound 0.375 µg/mL, partner 0.4 µg/mL	0.0338
[1], first compound 0.375 µg/mL, partner 0.8 µg/mL	0.0351
[1], first compound 0.75 µg/mL, partner 0.2 µg/mL	0.0448
[1], first compound 0.75 µg/mL, partner 0.4 µg/mL	0.0671
[1], first compound 0.75 µg/mL, partner 0.8 µg/mL	0.0531
[1], first compound 1.5 µg/mL, partner 0.2 µg/mL	0.0471
[1], first compound 1.5 µg/mL, partner 0.4 µg/mL	0.0332
[1], first compound 1.5 µg/mL, partner 0.8 µg/mL	0.0439
[2], first compound 0.0475 µg/mL, partner 0.002 µg/mL	0.898
[2], first compound 0.0475 µg/mL, partner 0.0039 µg/mL	0.855
[2], first compound 0.0475 µg/mL, partner 0.0312 µg/mL	0.0308
[2], first compound 0.0475 µg/mL, partner 0.0625 µg/mL	0.0341
[2], first compound 0.0475 µg/mL, partner 0.125 µg/mL	0.0327
[2], first compound 0.095 µg/mL, partner 0.002 µg/mL	0.854
[2], first compound 0.095 µg/mL, partner 0.0039 µg/mL	0.854
[2], first compound 0.095 µg/mL, partner 0.0312 µg/mL	0.0231
[2], first compound 0.095 µg/mL, partner 0.0625 µg/mL	0.0369
[2], first compound 0.095 µg/mL, partner 0.125 µg/mL	0.028
[2], first compound 0.19 µg/mL, partner 0.002 µg/mL	0.593
[2], first compound 0.19 µg/mL, partner 0.0039 µg/mL	0.61
[2], first compound 0.19 µg/mL, partner 0.0312 µg/mL	0.0218
[2], first compound 0.19 µg/mL, partner 0.0625 µg/mL	0.054
[2], first compound 0.19 µg/mL, partner 0.125 µg/mL	0.032

fitness, [2], one replicate
Conditions	first compound 0.0475 µg/mL	first compound 0.095 µg/mL	first compound 0.19 µg/mL
partner 0.001 µg/mL	0.924	0.912	0.674
partner 0.0078 µg/mL	0.907	0.824	0.623

COc1cccc2c1C(=O)c1c(O)c3c(c(O)c1C2=O)C[C@@](O)(C(=O)CO)C[C@@H]3O[C@H]1C[C@H](N)[C@H](O)[C@H](C)O1 [Doxorubicin] + CC1(C)S[C@@H]2[C@H](NC(=O)Cc3ccccc3)C(=O)N2[C@H]1C(=O)O [Penicillin G]
fitness, [3]
Conditions	first compound 0.625 µg/mL	first compound 1.25 µg/mL	first compound 2.5 µg/mL
partner 0.0195 µg/mL	0.705	0.711	0.698
partner 0.039 µg/mL	0.727	0.718	0.734
partner 0.078 µg/mL	0.752	0.72	0.692

C[C@H]1c2cccc(O)c2C(=O)C2=C(O)[C@]3(O)C(=O)C(C(N)=O)=C(O)[C@@H](N(C)C)[C@@H]3[C@@H](O)[C@@H]21 [Doxycycline] + COc1cccc2c1C(=O)c1c(O)c3c(c(O)c1C2=O)C[C@@](O)(C(=O)CO)C[C@@H]3O[C@H]1C[C@H](N)[C@H](O)[C@H](C)O1 [Doxorubicin]
fitness, [1], one replicate
Conditions	partner 0.25 µg/mL	partner 0.5 µg/mL	partner 1 µg/mL
first compound 0.003875 µg/mL	0.916	0.914	0.887
first compound 0.00775 µg/mL	0.885	0.891	0.848

fitness
Conditions	partner 0.25 µg/mL	partner 0.5 µg/mL	partner 0.625 µg/mL	partner 1 µg/mL	partner 1.25 µg/mL	partner 2.5 µg/mL
[1], first compound 0.0155 µg/mL	0.833	0.826	–	0.814	–	–
[2], first compound 0.02 µg/mL	–	–	0.915	–	0.854	0.695
[2], first compound 0.04 µg/mL	–	–	0.722	–	0.712	0.58
